# Measurements from patent US10854312B2, “Selective peptide antagonists” (BIONIZ, LLC, priority 2013, dated 2020).
# Entries after “also recorded” stand apart in the source; their conditions may differ. No end group written: not given here.
# Assays:
# Type in all cases: cell-based
# IL-2, -15 and -9 = assay: Inhibition of IL-2, -15 and -9 in human NK92 cell line and ex vivo human T cells
# Method: Human peripheral blood mononuclear cells were purified by the Ficoll-paque gradient centrifugation (GE-Healthcare) and stimulated by PHA (5 μg ml^−1, Sigma) for 48 h, then expanded with IL-2 (0.5 nM, Peprotech) for 48h, and then depleted of non-T cells by the Pan-T cell negative enrichment Ab cocktails (Miltenyi). The purified T cells were then fasted of IL-2 overnight prior to the proliferation assay by the tetrazolium dye method. Four hundred thousand cells (in 200 μl culture) were incubated with the cytokines and BNZ132-1 at the indicated concentrations for 24 h, and 20 μl WST1 reagent (Clontech) was added to each well. After 12 h incubation, OD450 was measured. The assay was performed in triplicate. […] NK 92 cells were cultured in human IL-2. Cells were washed to withdraw IL-2 for overnight and two hundred thousand cells (in 200 μl volume) were incubated with the indicated concentrations of the cytokine and BNZ132-1 for 24 h before 20 μl WST-1 reagent (Clontech) was added to each well to measure proliferative response. Absorbance at 450 nm was read at 6 h after the addition of the WST-1 dye. The assay was performed in triplicate. The assay was performed in triplicate and the figure represents a typical result out of 5 different HAM-TSP patients.
# Next, the biochemical aspects of the BNZ132-1 inhibition of target cytokines were investigated. […]
# human IL-2 signal = assay: Western blot of phosphorylation downstream of IL-2 in human PBMC / peripheral T cells
# Method: FIG. 9C presents IL-2 signal in human PBMC was blocked by BNZ132-1. Human PBMCs were prepared (Ficoll-paque), activated (by PHA) expanded (by IL-2), and purified by magnetic negative selection as described in the methodology section. After 24 h of IL-2 depletion, the PBMCs were stimulated by 1 nM IL-2 in the presence or absence of BNZ132-1 (0.5 or 0.1 μM) for 20 min before the cellular protein extraction. Phosphorylation of individual proteins was visualized by phosphor-specific antibodies (Cell Signaling), followed by ECL. Lanes: 1. no stimulation, 2. IL-2 stimulation, 3. IL-2+BNZ132-1 (high dose), 4. IL-2+BNZ132-1 (low dose). In all blots, anti-Vinculin antibody (Sigma) was used to validate nearly-equal protein loading.
# mouse IL-4 = assay: PT-18 proliferation assay (WST-1), IL-4; conditions: murine PT-18 cells, mouse IL-4, BNZ132-1 50 nM, 500 nM, 5 μM
# Method: (§1) FIG. 6A-FIG. 6E presents inhibitory spectrum of BNZ132-1 over γc- and non-γc-cytokines. […] Neutralizing antibodies against each cytokine (R & D systems, 5 μg ml^−1) were included as controls. After 20 h, the cells were pulsed with WST-1 (Clontech) and OD450 of each well was measured after 6 h. A 19-mer scrambled peptide was used as a negative control at 5 μM. The experiments were conducted in triplicate (applies to all experiments in FIG. 6A-FIG. 6E). The result represents one of at least three independent experiments (applies to all experiments in FIG. 6A-FIG. 6E). […] In PT-18 proliferation assay, PT-18β or PT-18h21Rα cells were withdrawn of mouse IL-3 for 12 h before the experiment. Cells were then incubated with 1 nM of mouse IL-4, mouse IL-9, or mouse IL-21 in the presence or absence of the indicated doses (μM) of BNZ132-1. Neutralizing antibodies to each cytokine (5 μg ml^−1, except for anti-mouse IL-21 polyclonal antibody which was used at 15 μg ml−1) and a scrambled control peptide (5 μM) were included as negative controls. WST-1 assay was conducted as described above. […] In PT-18 h21Rα survival assay, PT-18h21Rα cells are described in the text. […] Both parental and hIL-21Rα positive PT-18 cells were washed and incubated without IL-3 for 12 h before the assay. […] The Y-axis represents the cpm (count per minute) values measured by a β-counter. […]
# mouse IL-9 = assay: PT-18 proliferation assay (WST-1), IL-9; conditions: murine PT-18 cells, 1 nM mouse IL-9, BNZ132-1 50 nM, 500 nM, 5 μM
# Method: as §1
sequence,measurement,setting,value
IKEFLQRFIHIVQSIINTS [BNZ132-1],Ki,"IL-2, -15 and -9; approximate, from the inhibitory concentrations (Cheng-Prusoff), read-out: binding affinity of BNZ132-1 to target cells",10 to 60 nM
same,IC50,"IL-2, -15 and -9; human NK92 cell line and ex vivo human T cells, read-out: concentration at which IL-2, -15 and -9 are inhibited",50 to 150 nM
same,inhibition of IL-2 signal (phosphorylation),"human IL-2 signal; human PBMC/peripheral T cells, 1 nM IL-2, BNZ132-1 0.5 or 0.1 μM, 20 min",comprehensively inhibited; also recorded: blocked
same,differential inhibition of individual signaling pathways at suboptimal dose,"human IL-2 signal; low dose BNZ132-1 (0.1 μM), IL-2, human peripheral T cells",Akt and p38 are more sensitive than Jak3 and STAT5
same,inhibition of IL-4-induced proliferation of PT-18 cells,mouse IL-4,did not inhibit
same,inhibition of IL-9-induced proliferation of PT-18 cells,mouse IL-9,partially inhibited; also recorded: inhibition of IL-9
